Source: US10856562B2, “Flavor composition and edible compositions containing same” (MARS, INCORPORATED, priority 2013, dated 2020)
Entries after “also recorded” stand apart in the source; their conditions may differ. Square brackets hold non-standard residues; d marks the D form. Ends that are not written are not given here. pGlu = O=C1CC[C@@H](C(=O)O)N1

Tests used:
[1] = tested on: panelists; test: Descriptive profile of umami enhancer UE-30 in solution, in-mouth (Example 5); assay type: in vivo, human; conditions: for Astringent, in-mouth perception / Bitter, in-mouth perception / Metallic, in-mouth perception / Mineral/Flinty, in-mouth perception / Numbing, in-mouth perception / Salt, in-mouth perception / Sour, in-mouth perception / Sweet, in-mouth perception / Umami FF, in-mouth perception / Umami/Brothy, in-mouth perception: mean score, 15-point scale
Description: Descriptive attributes (e.g., taste, flavor and chemical feeling factors) of four use levels of a pGlu-Val-Cys (UE-30) flavor composition peptide was determined. The four use levels were as follows: 1.0 ppb, 10.0 ppb, 100.0 ppb and 1000.0 ppb.
Data was collected for the attributes of the product in-mouth for the use levels according to the following protocol: • The samples were analyzed for flavor and aftertaste by six-nine members of a panel, trained and experienced in appearance, flavor and texture evaluation using the Spectrum™ method. Samples were evaluated across multiple panel sessions. • The strength of each attribute was rated on a 15-point scale, where 0=none and 15=very strong. • This scale incorporates the ability to use tenths of a point and therefore has the potential of 150 scale differentiations. • The scale may be expanded beyond 15 points to include extreme ratings if necessary. Attribute Perception Protocol • The panelists evaluated each sample using the following procedure • Descriptive Profiles (Flavor and Chemical Feeling Factors) of 4 levels of UE-30 (umami enhancer) • Individual data (1 replication) was collected for the flavor and chemical feeling factors of the product in-mouth Sample Preparation
The 01, 10, 100 and 1000 ppb test samples of the flavor composition peptide was prepared in water as described in the table 19.
The panelists evaluated each sample for the attributes described in table 20.

[2] = Salty taste of NaCl-reduced potato chips with added peptide; assay type: in vivo; conditions: 50% salt reduction, 1150 ppb peptide
Description: All Ingredients were added into a plastic container and mixed gently.
Two batches of potato chips were made: a control with 100% NaCl (0.5 g) and a sample with 50% NaCl (0.25 g) and 1150 ppb pGlu-Val-Leu.
A 1000 ppm stock of pGlu-Val-Leu in salt was made to be added to the potato chips.

[3] = Salty taste of peanut butter with added peptide; assay type: in vivo; conditions: no salt reduction, 267 ppb peptide
Description: All Ingredients were added into the mixing bowl and milled on the Retsch mill (model RM200) for a total of 30 minutes for two 15 minute intervals. After 15 minutes, the walls of the bowl were scraped with a spatula and then, milling was resumed.
Three batches of peanut butter were made: a control with 100% NaCl (0.05 g), a sample with 100% NaCl (0.05 g) and 267 ppb pGlu-Val-Leu, and a sample with 50% NaCl reduction (0.025 g) and with 267 ppb pGlu-Val-Leu.
A 1000 ppm stock of pGlu-Val-Leu in salt was made to be added to the peanut butter.

[4] = Salty taste of NaCl-reduced roasted chicken flavored rice with added peptide; assay type: in vivo; conditions: 50% NaCl reduction, 50 ppb peptide
Description: All Ingredients, except the rice, were placed into a container and mixed. The mixture was heated in a microwave for a total of one minute for two 30 second intervals. The rice and mixture were then mixed in a bowl. The cooking bowl was placed into a rice cooker and the cook cycle was started. After 36 minutes the rice was mixed and then allowed to cook for the remaining time for a total time of 49 minutes.
Three batches of rice were made: a control with 100% NaCl (4.7696 g), a sample with 50% NaCl (2.38 g), and the last sample had 50% NaCl (2.38 g) with 50 ppb of pGlu-Val-Leu.
Three batches of rice were made: a control with 100% NaCl, a sample with 50% NaCl, and a sample that had 50% NaCl (2.38 g) with 50 ppb of pGlu-Val-Val.
Two batches of rice were made: a control with 50% NaCl (2.38 g), and the other sample had 50% NaCl (2.38 g) with 50 ppb of pGlu-Val and 50 ppb of pGlu-Pro-Glu. Two stock solutions were made to be added to the rice: a 200 ppm stock solution of pGlu-Val in water and a 200 ppm stock solution of pGlu-Pro-Glu in water, as shown in table 44.
Three batches of rice were made: a control with 100% NaCl (4.7696 g), a sample with 40% NaCl (1.9 g), and the last sample had 40% NaCl (1.9 g) with 1 ppb of pGlu-Val-Leu and 1 ppb of pGlu-Val-Cys. […]

[pGlu]-Val-Cys [UE-30]
Astringent, in-mouth perception ([1]; 1.0 ppb in solution): 0.0
Bitter, in-mouth perception ([1]; 1.0 ppb in solution): 0.0
Metallic, in-mouth perception ([1]; 1.0 ppb in solution): 0.0
Mineral/Flinty, in-mouth perception ([1]; 1.0 ppb in solution): 0.5
Numbing, in-mouth perception ([1]; 1.0 ppb in solution): 0.0
Salt, in-mouth perception ([1]; 1.0 ppb in solution): 1.9
Sour, in-mouth perception ([1]; 1.0 ppb in solution): 0.0
Sweet, in-mouth perception ([1]; 1.0 ppb in solution): 0.0
Umami FF, in-mouth perception ([1]; 1.0 ppb in solution): 0.5
Umami/Brothy, in-mouth perception ([1]; 1.0 ppb in solution): 0.7
Level of the remaining aromatics, basic tastes and chemical feeling factors with increasing concentration ([1]; 1.0 to 1000.0 ppb, in-mouth): does not increase
Salt perception level as the concentration increases ([1]; 1.0 to 1000.0 ppb, in-mouth): increases slightly; also recorded: Shows increases
Umami feeling factor as the concentration increases ([1]; 1.0 to 1000.0 ppb, in-mouth): increases slightly; also recorded: Shows increases
Umami/brothy aromatic as the concentration increases ([1]; 1.0 to 1000.0 ppb, in-mouth): increases slightly; also recorded: Shows increases
Astringent, in-mouth perception ([1]; 10.0 ppb in solution): 0.0
Bitter, in-mouth perception ([1]; 10.0 ppb in solution): 0.0
Metallic, in-mouth perception ([1]; 10.0 ppb in solution): 0.0
Mineral/Flinty, in-mouth perception ([1]; 10.0 ppb in solution): 0.7
Numbing, in-mouth perception ([1]; 10.0 ppb in solution): 0.0
Salt, in-mouth perception ([1]; 10.0 ppb in solution): 2.1
Sour, in-mouth perception ([1]; 10.0 ppb in solution): 0.0
Sweet, in-mouth perception ([1]; 10.0 ppb in solution): 0.0
Umami FF, in-mouth perception ([1]; 10.0 ppb in solution): 1.9
Umami/Brothy, in-mouth perception ([1]; 10.0 ppb in solution): 1.0
Astringent, in-mouth perception ([1]; 100.0 ppb in solution): 0.0
Bitter, in-mouth perception ([1]; 100.0 ppb in solution): 0.0
Metallic, in-mouth perception ([1]; 100.0 ppb in solution): 0.0
Mineral/Flinty, in-mouth perception ([1]; 100.0 ppb in solution): 0.7
Numbing, in-mouth perception ([1]; 100.0 ppb in solution): 0.0
Salt, in-mouth perception ([1]; 100.0 ppb in solution): 2.6
Sour, in-mouth perception ([1]; 100.0 ppb in solution): 0.0
Sweet, in-mouth perception ([1]; 100.0 ppb in solution): 0.0
Umami FF, in-mouth perception ([1]; 100.0 ppb in solution): 2.7
Umami/Brothy, in-mouth perception ([1]; 100.0 ppb in solution): 1.8
Astringent, in-mouth perception ([1]; 1000.0 ppb in solution): 0.0
Bitter, in-mouth perception ([1]; 1000.0 ppb in solution): 0.0
Metallic, in-mouth perception ([1]; 1000.0 ppb in solution): 0.0
Mineral/Flinty, in-mouth perception ([1]; 1000.0 ppb in solution): 0.6
Numbing, in-mouth perception ([1]; 1000.0 ppb in solution): 0.0
Salt, in-mouth perception ([1]; 1000.0 ppb in solution): 3.4
Sour, in-mouth perception ([1]; 1000.0 ppb in solution): 0.0
Sweet, in-mouth perception ([1]; 1000.0 ppb in solution): 0.0
Umami FF, in-mouth perception ([1]; 1000.0 ppb in solution): 3.5
Umami/Brothy, in-mouth perception ([1]; 1000.0 ppb in solution): 2.5

[pGlu]-Val-Leu [SE-13]
Salty taste compared to control with 100% NaCl [2]: saltier than the control
Salty taste compared to control with 100% NaCl [3]: saltier than the control

[pGlu]-Val-Val [SE-17]
Aftertaste [4]: had a salty aftertaste
